# “Also recorded” adds a separate entry of the source.
# Columns and labels:
# Format in all cases: cell-based, human
# FHs 74 Int cells = assay: Morphological observation under an inverted microscope, FHs 74 Int; settings: 72 h; degraded and TAM at 72 h IC50, undegraded at highest concentration
# Description: (§1) Approximately 2×10^5 cells were seeded in 2 mL of culture medium in 6-well plates (BD Labware, England) and incubated with 5% CO2 at 37°C for 24 h. The cells were then treated with degraded FGKC, DKC and CGKC at the appropriate concentrations to produce 50% cell viability at 72 hours as pre-determined by the MTT assay. For undegraded carrageenan, the highest concentration with longest treatment period (72 hours) was used to test on the cells. […] The morphology of the treated cells was observed under an inverted microscope at 200× magnification. The observed morphology was compared to the morphology of untreated cells.
# HepG2 cells [1] = assay: DNA fragmentation by agarose gel electrophoresis, HepG2; settings: 1% agarose gel
# Description: Caco-2 and HepG2 cells treated with degraded FGKC, DKC and CGKC were lysed with lysis buffer (10 mM Tris–HCl, 5 mM EDTA, […], 0.2% SDS) and incubated at 60°C for 5 min. The RNA in each sample was digested with 10 μL of RNase at 37°C for 1 hour, and proteinase K (more than 3 U uL^−1) was added before incubating at 50°C for an additional 1.5 h. NaCl (5 M) was then added, and the samples were incubated on ice for 5 min to precipitate the protein. The cells were centrifuged for 15 min at highest speed at 4°C, after which supernatant was collected, and an equal volume of isopropanol was added to precipitate the DNA. Then, each sample was centrifuged again at 10,000 g for 10 min at 4°C. Supernatants were discarded, and the pellets were washed with 70% cold ethanol. The DNA sample was left to dry at room temperature before adding 1× TE buffer. Electrophoresis was carried out in a 1.0% (w/v) agarose gel for 1.5 h at 70 V. The gel was examined under UV transillumination following ethidium bromide staining to determine the extent of apoptotic DNA fragmentation.
# HepG2 cells [2] = assay: Acridine orange-ethidium bromide (AO/EtBr) staining, HepG2; settings: 72 h; degraded k-carrageenan
# Description: After the cells were harvested by trypsinisation, they were washed with PBS. A 25 μL sample of cells was stained with 10 μL of a mixture (1:1) of acridine orange and ethidium bromide solution. The concentration of AO/EtBr are […] in 1× PBS. After staining, the cells were viewed under a fluorescence microscope at 200× magnification (Leica DM 2500).
# [3] = system: PCNA, MKI67 and survivin gene expression in HepG2 cells; assay: RT-PCR gene expression analysis, HepG2; settings: 72 h, degraded and tamoxifen at IC50, undegraded at 2000 μg mL^−1
# Description: Reverse transcription polymerase chain reaction (RT-PCR) was used to analyze the presence of transcribed mRNA for cell proliferation gene marker. […] The extracted RNA was dissolved in DEPC-treated water. The RNA concentration and sample purity was determined using spectrophotometer (Bio Photometer plus, Eppendorf). Two steps RT-PCR were conducted where 1 μg of total RNA was used in the first strand cDNA synthesis using RevertAid First Strand cDNA Synthesis Kit (ThermoScientific, USA). Subsequent PCR reaction was done utilizing Mastercyler Gradient (Eppendorf, Germany). The expression of cell proliferation markers, e.g. PCNA, MKI67 and BIRC5 or known as survivin were analyzed with GAPDH gene acting as the endogenous control. […] PCR amplification were under the following conditions: initial denaturation at 95°C for 2 min, denaturation at 95°C for 1 min, primer annealing as stated in Table 1, extension at 72°C for 45 second, and final extension at 72°C for 5 min. […] The separated DNA fragments were visualized by ethidium bromide staining and photographed using the Alpha Imaging System (Alpha Innotech, San Leandro, CA, USA) under UV transillumination.
# Fa2N-4 cells = assay: Morphological observation under an inverted microscope, Fa2N-4; settings: 72 h; degraded and TAM at 72 h IC50, undegraded at highest concentration
# Description: as §1
# HepG2 cells [4] = assay: Morphological observation under an inverted microscope, HepG2; settings: 72 h; degraded and TAM at 72 h IC50, undegraded at highest concentration
# Description: as §1
smiles,measurement,setting,value
"CC/C(=C(\c1ccccc1)c1ccc(OCCN(C)C)cc1)c1ccccc1 [TAM, Tamoxifen]","Cell morphology before staining, FHs 74 Int",FHs 74 Int cells,cell shrinkage
same,"DNA fragmentation (DNA ladder), HepG2",HepG2 cells [1],fragmented
same,"Mode of cell death by AO/EtBr staining, HepG2",HepG2 cells [2],showed apoptosis
same,"MKI67 gene expression, HepG2",[3],lower than control; also recorded: undetectably low
same,"PCNA gene expression, HepG2",[3],lower than control
same,"survivin gene expression, HepG2",[3],lower than control; also recorded: not expressed
same,"Cell morphology before staining, Fa2N-4",Fa2N-4 cells,cell shrinkage
same,"Cell morphology before staining, HepG2",HepG2 cells [4],cell shrinkage
